{"source": "patent US20080275035A1", "about": "(priority 2005, published 2008)", "data": [{"system": "Mycobacterium tuberculosis H37Rv (ATCC 27294)", "assay": "microbe, parasite or virus in culture", "format": "cell-based", "units": {"MIC": "µg/mL"}, "values": [{"compound": "[H]/N=C(/N)N[C@H]1[C@H](O)[C@@H](O)[C@H](O[C@@H]2O[C@@H](C)[C@](O)(C=O)[C@H]2O[C@@H]2O[C@@H](CO)[C@H](O)[C@@H](O)[C@@H]2NC)[C@@H](N/C(N)=N\\[H])[C@@H]1O", "note": "[streptomycin]", "MIC": 0.25}]}, {"system": "not given", "assay": "not given", "units": {"melting point": "°C"}, "values": [{"compound": "O=C(CO[C@@H]1COc2nc([N+](=O)[O-])cn2C1)N1CCN(c2ccc(OC(F)(F)F)cc2)CC1", "melting point": "77 to 79"}, {"compound": "O=[N+]([O-])c1cn2c(n1)OCC(OCc1ccc(OCc3ccc(F)cc3)cc1)C2", "note": "(stereo not drawn)", "melting point": "150.2 to 150.9"}, {"compound": "O=C(CO[C@@H]1COc2nc([N+](=O)[O-])cn2C1)Nc1ccc(OC(F)(F)F)cc1", "melting point": "157 to 158"}, {"compound": "O=[N+]([O-])c1cn2c(n1)OC[C@@H](OCc1nc3ccc(OC(F)(F)F)cc3[nH]1)C2", "melting point": "99 to 100"}, {"compound": "O=C(CO[C@@H]1COc2nc([N+](=O)[O-])cn2C1)N1CCC(c2nc3cc(OC(F)(F)F)ccc3[nH]2)CC1", "melting point": "131 to 132"}, {"compound": "O=[N+]([O-])c1cn2c(n1)OC[C@@H](OCc1csc(-c3ccc(OC(F)(F)F)cc3)n1)C2", "melting point": "140 to 141"}, {"compound": "O=C(CO[C@@H]1COc2nc([N+](=O)[O-])cn2C1)Nc1nc2ccc(OC(F)(F)F)cc2s1", "note": "(stereo in doubt)", "melting point": "89 to 90"}, {"compound": "O=[N+]([O-])c1cn2c(n1)OC[C@@H](OCc1nc3ccc(C(F)(F)F)cc3[nH]1)C2", "melting point": "120 to 121"}, {"compound": "O=C(CO[C@@H]1COc2nc([N+](=O)[O-])cn2C1)Nc1nc(-c2ccc(OC(F)(F)F)cc2)cs1", "melting point": "120 to 121"}, {"compound": "O=C(CO[C@@H]1COc2nc([N+](=O)[O-])cn2C1)N1CCN(c2ccc(F)cc2)CC1", "melting point": "73 to 74"}, {"compound": "O=C(CO[C@@H]1COc2nc([N+](=O)[O-])cn2C1)NCc1ccc(OC(F)(F)F)cc1", "melting point": "110 to 111"}, {"compound": "O=[N+]([O-])c1cn2c(n1)OC[C@@H](OCc1ccc(-c3nc4cc(OC(F)(F)F)ccc4[nH]3)cc1)C2", "melting point": "98 to 99"}, {"compound": "O=[N+]([O-])c1cn2c(n1)OCC(OCc1ccc(-c3nc4cc(OC(F)(F)F)ccc4o3)cc1)C2", "note": "(stereo not drawn)", "melting point": "187 to 188"}, {"compound": "O=C(CO[C@@H]1COc2nc([N+](=O)[O-])cn2C1)N1CCN(c2ccc(C(F)(F)F)cn2)CC1", "melting point": "189 to 190"}]}]}
